Experimental data from US7118895B2, “Process for producing aglycon by using diglycosidase and flavor-improved food containing the aglycon and converting agent to be used in the process” (Amano Enzyme Inc., priority 2000, dated 2006).

Assays:
Crude diglycosidase = assay: Examination of substrate concentration in the conversion into isoflavone aglycons by diglycosidase using soybean materials; type: biochemical, Penicillium multicolor IAM7153;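 further: percent of the isoflavone family total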
In short: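 Reaction at 55° C, shaken, pH 4.0 (20 mM acetate), using crude diglycosidase from a 1.88 AU/mL enzyme solution on soy flour, soymilk, defatted soybean or soy protein concentrate at 2, 5, 10, 20 or 30% (w/v). Isoflavone aglycons quantified by HPLC of ethanol extracts at 0, 1, 3, 6 h.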

[1] = test system: Diglycosidase derived from A. fumigatus; assay: Reactivity toward various isoflavone glycosides (HPLC); type: biochemical, Aspergillus fumigatus; parameters: unit not given here; details: 55 °C, pH 4.0
In short: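 Aglycone liberation was measured by reversed-phase HPLC (260 nm, calibration-curve quantitation) after ethanol extraction at 0, 1, 3 and 6 h. Reactions ran at 55° C, pH 4.0 (20 mM acetate), with each glycoside (from 2 mM methanol stock) and 0.75 AU/mL enzyme solution.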

Decomposition efficiency: ratio of each glycoside/aglycon within its isoflavone family (Crude diglycosidase; roasted soy flour, substrate concentration 5%, heat treatment of enzyme no, reaction time 0 h): not detected | Decomposition efficiency: ratio of each glycoside/aglycon within its isoflavone family (Crude diglycosidase; roasted soy flour, substrate concentration 5%, heat treatment of enzyme no, reaction time 1 h): not detected | Decomposition efficiency: ratio of each glycoside/aglycon within its isoflavone family (Crude diglycosidase; roasted soy flour, substrate concentration 5%, heat treatment of enzyme no, reaction time 3 h): not detected | Decomposition efficiency: ratio of each glycoside/aglycon within its isoflavone family (Crude diglycosidase; roasted soy flour, substrate concentration 5%, heat treatment of enzyme no, reaction time 6 h): not detected | Decomposition efficiency: ratio of each glycoside/aglycon within its isoflavone family (Crude diglycosidase; roasted soy flour, substrate concentration 5%, heat treatment of enzyme yes, reaction time 6 h): not detected | Decomposition efficiency: ratio of each glycoside/aglycon within its isoflavone family (Crude diglycosidase; roasted soy flour, substrate concentration 10%, heat treatment of enzyme no, reaction time 0 h): not detected | Decomposition efficiency: ratio of each glycoside/aglycon within its isoflavone family (Crude diglycosidase; roasted soy flour, substrate concentration 10%, heat treatment of enzyme no, reaction time 1 h): not detected | Decomposition efficiency: ratio of each glycoside/aglycon within its isoflavone family (Crude diglycosidase; roasted soy flour, substrate concentration 10%, heat treatment of enzyme no, reaction time 3 h): not detected | Decomposition efficiency: ratio of each glycoside/aglycon within its isoflavone family (Crude diglycosidase; roasted soy flour, substrate concentration 10%, heat treatment of enzyme no, reaction time 6 h): not detected | Decomposition efficiency: ratio of each glycoside/aglycon within its isoflavone family (Crude diglycosidase; roasted soy flour, substrate concentration 10%, heat treatment of enzyme yes, reaction time 6 h): not detected | Decomposition efficiency: ratio of each glycoside/aglycon within its isoflavone family (Crude diglycosidase; roasted soy flour, substrate concentration 20%, heat treatment of enzyme no, reaction time 0 h): not detected | Decomposition efficiency: ratio of each glycoside/aglycon within its isoflavone family (Crude diglycosidase; roasted soy flour, substrate concentration 20%, heat treatment of enzyme no, reaction time 1 h): not detected | Decomposition efficiency: ratio of each glycoside/aglycon within its isoflavone family (Crude diglycosidase; roasted soy flour, substrate concentration 20%, heat treatment of enzyme no, reaction time 3 h): not detected | Decomposition efficiency: ratio of each glycoside/aglycon within its isoflavone family (Crude diglycosidase; roasted soy flour, substrate concentration 20%, heat treatment of enzyme no, reaction time 6 h): not detected | Decomposition efficiency: ratio of each glycoside/aglycon within its isoflavone family (Crude diglycosidase; roasted soy flour, substrate concentration 20%, heat treatment of enzyme yes, reaction time 6 h): not detected | Decomposition efficiency: ratio of each glycoside/aglycon within its isoflavone family (Crude diglycosidase; roasted soy flour, substrate concentration 30%, heat treatment of enzyme no, reaction time 0 h): not detected | Decomposition efficiency: ratio of each glycoside/aglycon within its isoflavone family (Crude diglycosidase; roasted soy flour, substrate concentration 30%, heat treatment of enzyme no, reaction time 1 h): not detected | Decomposition efficiency: ratio of each glycoside/aglycon within its isoflavone family (Crude diglycosidase; roasted soy flour, substrate concentration 30%, heat treatment of enzyme no, reaction time 3 h): not detected | Decomposition efficiency: ratio of each glycoside/aglycon within its isoflavone family (Crude diglycosidase; roasted soy flour, substrate concentration 30%, heat treatment of enzyme no, reaction time 6 h): not detected | Decomposition efficiency: ratio of each glycoside/aglycon within its isoflavone family (Crude diglycosidase; roasted soy flour, substrate concentration 30%, heat treatment of enzyme yes, reaction time 6 h): not detected | Decomposition efficiency: ratio of each glycoside/aglycon within its isoflavone family (Crude diglycosidase; soymilk, substrate concentration 2%, heat treatment of enzyme no, reaction time 0 h): 28.2% | Decomposition efficiency: ratio of each glycoside/aglycon within its isoflavone family (Crude diglycosidase; soymilk, substrate concentration 2%, heat treatment of enzyme no, reaction time 1 h): not detected | Decomposition efficiency: ratio of each glycoside/aglycon within its isoflavone family (Crude diglycosidase; soymilk, substrate concentration 2%, heat treatment of enzyme no, reaction time 3 h): not detected | Decomposition efficiency: ratio of each glycoside/aglycon within its isoflavone family (Crude diglycosidase; soymilk, substrate concentration 2%, heat treatment of enzyme no, reaction time 6 h): not detected | Decomposition efficiency: ratio of each glycoside/aglycon within its isoflavone family (Crude diglycosidase; soymilk, substrate concentration 2%, heat treatment of enzyme yes, reaction time 6 h): 48.2% | Decomposition efficiency: ratio of each glycoside/aglycon within its isoflavone family (Crude diglycosidase; soymilk, substrate concentration 5%, heat treatment of enzyme no, reaction time 0 h): 50.6% | Decomposition efficiency: ratio of each glycoside/aglycon within its isoflavone family (Crude diglycosidase; soymilk, substrate concentration 5%, heat treatment of enzyme no, reaction time 1 h): 24.6% | Decomposition efficiency: ratio of each glycoside/aglycon within its isoflavone family (Crude diglycosidase; soymilk, substrate concentration 5%, heat treatment of enzyme no, reaction time 3 h): 7.5% | Decomposition efficiency: ratio of each glycoside/aglycon within its isoflavone family (Crude diglycosidase; soymilk, substrate concentration 5%, heat treatment of enzyme no, reaction time 6 h): not detected | Decomposition efficiency: ratio of each glycoside/aglycon within its isoflavone family (Crude diglycosidase; soymilk, substrate concentration 5%, heat treatment of enzyme yes, reaction time 6 h): 43.3% | Decomposition efficiency: ratio of each glycoside/aglycon within its isoflavone family (Crude diglycosidase; soymilk, substrate concentration 10%, heat treatment of enzyme no, reaction time 0 h): 41.1% | Decomposition efficiency: ratio of each glycoside/aglycon within its isoflavone family (Crude diglycosidase; soymilk, substrate concentration 10%, heat treatment of enzyme no, reaction time 1 h): 26.4% | Decomposition efficiency: ratio of each glycoside/aglycon within its isoflavone family (Crude diglycosidase; soymilk, substrate concentration 10%, heat treatment of enzyme no, reaction time 3 h): 10.5% | Decomposition efficiency: ratio of each glycoside/aglycon within its isoflavone family (Crude diglycosidase; soymilk, substrate concentration 10%, heat treatment of enzyme no, reaction time 6 h): 4.2% | Decomposition efficiency: ratio of each glycoside/aglycon within its isoflavone family (Crude diglycosidase; soymilk, substrate concentration 10%, heat treatment of enzyme yes, reaction time 6 h): 37.0% | Decomposition efficiency: ratio of each glycoside/aglycon within its isoflavone family (Crude diglycosidase; soymilk, substrate concentration 20%, heat treatment of enzyme no, reaction time 0 h): 41.3% | Decomposition efficiency: ratio of each glycoside/aglycon within its isoflavone family (Crude diglycosidase; soymilk, substrate concentration 20%, heat treatment of enzyme no, reaction time 1 h): 27.8% | Decomposition efficiency: ratio of each glycoside/aglycon within its isoflavone family (Crude diglycosidase; soymilk, substrate concentration 20%, heat treatment of enzyme no, reaction time 3 h): 9.4% | Decomposition efficiency: ratio of each glycoside/aglycon within its isoflavone family (Crude diglycosidase; soymilk, substrate concentration 20%, heat treatment of enzyme no, reaction time 6 h): 5.9% | Decomposition efficiency: ratio of each glycoside/aglycon within its isoflavone family (Crude diglycosidase; soymilk, substrate concentration 20%, heat treatment of enzyme yes, reaction time 6 h): 38.8% | Decomposition efficiency: ratio of each glycoside/aglycon within its isoflavone family (Crude diglycosidase; soymilk, substrate concentration 30%, heat treatment of enzyme no, reaction time 0 h): 43.0% | Decomposition efficiency: ratio of each glycoside/aglycon within its isoflavone family (Crude diglycosidase; soymilk, substrate concentration 30%, heat treatment of enzyme no, reaction time 1 h): 33.1% | Decomposition efficiency: ratio of each glycoside/aglycon within its isoflavone family (Crude diglycosidase; soymilk, substrate concentration 30%, heat treatment of enzyme no, reaction time 3 h): 15.9% | Decomposition efficiency: ratio of each glycoside/aglycon within its isoflavone family (Crude diglycosidase; soymilk, substrate concentration 30%, heat treatment of enzyme no, reaction time 6 h): 7.7% | Decomposition efficiency: ratio of each glycoside/aglycon within its isoflavone family (Crude diglycosidase; soymilk, substrate concentration 30%, heat treatment of enzyme yes, reaction time 6 h): 37.5% | aglycon ([1]; Reaction time 0 h): 0 | glucoside ([1]; Reaction time 0 h): 100 | aglycon ([1]; Reaction time 1 h): 0.4 | glucoside ([1]; Reaction time 1 h): 99.6 | aglycon ([1]; Reaction time 3 h): 0.8 | glucoside ([1]; Reaction time 3 h): 99.2 | aglycon ([1]; Reaction time 6 h): 1.4 | glucoside ([1]; Reaction time 6 h): 98.6
Structure (SMILES): COc1cc2c(=O)c(-c3ccc(O)cc3)coc2cc1O[C@@H]1O[C@H](COC(=O)CC(=O)O)[C@@H](O)[C@H](O)[C@H]1O [malonylglycitin, 6″-O-malonylglycitin]
